In experiment [1] the target is T1, Polyunsaturated fatty acid 5-lipoxygenase (Homo sapiens) (UniProt P09917).
T1 sequence (whole entry): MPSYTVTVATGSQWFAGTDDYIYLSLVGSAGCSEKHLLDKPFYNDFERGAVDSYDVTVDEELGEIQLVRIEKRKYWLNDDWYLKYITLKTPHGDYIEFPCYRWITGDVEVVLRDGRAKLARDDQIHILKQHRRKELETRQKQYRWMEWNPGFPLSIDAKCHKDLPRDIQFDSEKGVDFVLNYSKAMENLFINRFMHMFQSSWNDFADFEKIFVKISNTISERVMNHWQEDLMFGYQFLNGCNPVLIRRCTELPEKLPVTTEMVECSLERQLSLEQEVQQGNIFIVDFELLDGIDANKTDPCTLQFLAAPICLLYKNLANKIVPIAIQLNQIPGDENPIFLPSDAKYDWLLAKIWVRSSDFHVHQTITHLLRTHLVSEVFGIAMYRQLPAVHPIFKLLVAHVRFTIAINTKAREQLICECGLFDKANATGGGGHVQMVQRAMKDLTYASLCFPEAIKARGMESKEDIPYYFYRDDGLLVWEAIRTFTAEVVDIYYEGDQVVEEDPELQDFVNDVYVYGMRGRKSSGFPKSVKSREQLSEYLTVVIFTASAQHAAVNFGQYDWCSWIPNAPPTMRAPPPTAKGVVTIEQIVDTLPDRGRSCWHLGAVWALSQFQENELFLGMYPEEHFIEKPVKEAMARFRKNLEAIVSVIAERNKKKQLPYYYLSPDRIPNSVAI
As to the kind of experiment: Inhibition of 5-LO in human PMNL cells assessed as reduction in leukotriene formation at 1 uM preincubated for 5 mins followed by thapsigargin stimulation measured after 15 mins by RP-HPLC analysis relative to control. Format: cell-based.

Experiment [2] concerns the target T2, Polyunsaturated fatty acid 5-lipoxygenase (Homo sapiens, UniProt P09917).
T2 sequence (P09917 whole entry): T1 sequence (whole entry)
In words: Inhibition of 5-LO in human PMNL cells assessed as reduction in leukotriene formation preincubated for 5 mins followed by thapsigargin stimulation measured after 15 mins by RP-HPLC analysis. The experiment is classed as cell-based.

Experiment [3] addresses T1, Polyunsaturated fatty acid 5-lipoxygenase (Homo sapiens). As to the kind of experiment: Inhibition of human 5-LO transfected in HEK293 cells coexpressing FLAP assessed as reduction in leukotriene formation at 1 uM using arachidonic acid as substrate preincubated for 5 mins followed by calcium ionophore A23187/arachidonic acid addition and measured after 15 mins by RP-HPLC analysis. The experiment is classed as cell-based.

Experiment [4] can be described thus: Cytotoxicity against VHL-positive human RCC10 cells assessed as reduction in cell viability incubated for 4 days by XTT assay. The experiment is classed as functional, cell-based. Particulars: 96 h.
The nature of experiment [5]: Cytotoxicity against VHL-deficient human RCC10 cells assessed as reduction in cell viability incubated for 4 days by XTT assay. Particulars: 96 h. Format: functional, cell-based. (In general: Formazan colour is commonly taken as a measure of viable cells.)
Experiment [6] can be described thus: Selectivity ratio of IC50 for VHL-positive human RCC4/VHL cells to IC50 for VHL-deficient human RCC4 cells. The experiment is classed as functional.
Experiment [7] concerns RCC4. As to the kind of experiment: Cytotoxicity against VHL-deficient human RCC4 cells assessed as reduction in cell viability incubated for 4 days by XTT assay. Format: functional, cell-based. The following applies: RCC4, 96 h.
Experiment [8] has as its system 786-0. In words: Cytotoxicity against VHL-deficient human 786-0 cells assessed as reduction in cell viability incubated for 4 days by XTT assay. The experiment is classed as functional, cell-based. Particulars: 786-0, 96 h.
The subject of experiment [9] is 786-0. In words: Cytotoxicity against VHL-positive human 786-0 cells assessed as reduction in cell viability incubated for 4 days by XTT assay. The following applies: 786-0, 96 h. Format: functional, cell-based.
Experiment [10] deals with RCC4/VHL. As to the kind of experiment: Cytotoxicity against VHL-positive human RCC4/VHL cells assessed as reduction in cell viability incubated for 4 days by XTT assay. Particulars: 96 h. The experiment is classed as functional, cell-based.
Experiment [11] is described as follows: Antioxidant activity assessed as DPPH radical scavenging activity incubated for 30 mins under dark condition. The experiment is classed as functional. For orientation: DPPH is a stable violet radical that fades when it is reduced.
Experiment [12] relates to RCC4/VHL. As to the kind of experiment: Inhibition of autophagic flux in human RCC4/VHL cells assessed as increase in p62 expression at 1.25 uM incubated for 24 hrs by Western blot analysis. The experiment is classed as functional, cell-based. For orientation: Immunoblotting shows a protein as a band on a membrane.
Experiment [13] deals with RCC4/VHL. As to the kind of experiment: Induction of cellular phenotype changes in human RCC4/VHL cells at 1.25 uM incubated for 24 hrs by inverted microscopic analysis. The experiment is classed as functional, cell-based.
The test system of experiment [14] is RCC4/VHL. In words: Induction of apoptosis in human RCC4/VHL cells assessed as cleavage of pro-caspase 3 at 1.25 uM incubated for 24 hrs by Western blot analysis. The experiment is classed as functional, cell-based.
Experiment [15] relates to RCC4. As to the kind of experiment: Inhibition of autophagic flux in VHL-deficient human RCC4 cells assessed as increase in p62 expression at 1.25 uM incubated for 24 hrs by Western blot analysis. Format: functional, cell-based.
Experiment [16] concerns RCC4/VHL. As to the kind of experiment: Induction of autophagy in human RCC4/VHL cells assessed as increase in conversion of LC3B1 to LC3B2 expression at 1.25 uM incubated for 24 hrs by Western blot analysis. The experiment is classed as functional, cell-based.
Experiment [17] deals with RCC4. In words: Induction of DNA damage in VHL-deficient human RCC4 cells assessed as induction of p53 expression at 1.25 uM incubated for 24 hrs by Western blot analysis. Format: functional, cell-based.
In experiment [18] the test system is RCC4. In words: Induction of autophagy in VHL-deficient human RCC4 cells assessed as increase in conversion of LC3B1 to LC3B2 expression at 1.25 uM incubated for 24 hrs by Western blot analysis. Format: functional, cell-based.
The subject of experiment [19] is RCC4. In words: Induction of apoptosis in VHL-deficient human RCC4 cells assessed as cleavage of pro-caspase 3 at 1.25 uM incubated for 24 hrs by Western blot analysis. The experiment is classed as functional, cell-based.
Experiment [20] has as its system RCC4. In words: Induction of cellular phenotype changes in VHL-deficient human RCC4 cells at 1.25 uM incubated for 24 hrs by inverted microscopic analysis. The experiment is classed as functional, cell-based.
Experiment [21] has as its system RCC4/VHL. In words: Induction of DNA damage in human RCC4/VHL cells assessed as induction of p53 expression at 1.25 uM incubated for 24 hrs by Western blot analysis. The experiment is classed as functional, cell-based.

The source made the active and inactive calls. The rule behind the calls is not given here.

The inhibition is the drop in the measured response relative to a control, in per cent. In general, IC50 refers to the concentration needed to halve the response being measured. Turning to `O=C(/C=C/c1cccc(O)c1O)OCCc1ccccc1`, the inhibition in experiment [1] is over 50%. Further, in experiment [2], the half-maximal inhibitory concentration (IC50) came out at 0.89 µM. In experiment [3], the inhibition result is “Active”.

As to `O=C(/C=C/c1ccc(O)c(O)c1)OCCc1ccccc1` [CAFFEIC ACID PHENETHYL ESTER], the inhibition result in experiment [1] and in [3] was “Active” in each case. Also, the IC50 in [4] is 12.6 µM; in [5], 19.8 µM; in the experiment with RCC4 [7] it was 14 µM; in the experiment on 786-0 [8], 26.8 µM; with 786-0 [9] it was 43.8 µM; in the experiment with RCC4/VHL [10] it was 29.1 µM. Besides, the IC50 in experiment [11] amounted to 18.2 µM. For the same molecule, the “Ratio IC50” value in experiment [6] stood at 2.1.

Turning to `O=C1O[C@H]([C@@H](O)CO)C(O)=C1O` [ASCORBIC ACID], the concentration for half-maximal inhibition (IC50) in experiment [11] stood at 13.9 µM.

In the case of `Cc1cccc(Nc2nc(-c3ccncc3)cs2)c1`, the inhibition entry in the experiment with RCC4/VHL [12] and with RCC4 [15] was “Active” each time. For the same molecule, the IC50 in experiment [4] came to 12.6 µM; in [5], 8.6 µM; in the experiment with RCC4 [7], 1.2 µM; in the experiment on 786-0 [8] it was 5.7 µM; in the experiment on 786-0 [9], 6.9 µM; in the experiment with RCC4/VHL [10], 5.3 µM. Moreover, the outcome in the experiment on RCC4/VHL [13], in the experiment with RCC4/VHL [14], in the experiment with RCC4 [17], with RCC4 [19], with RCC4 [20] and in the experiment on RCC4/VHL [21] was inactive. The result in the experiment on RCC4/VHL [16] and with RCC4 [18] was Active. In experiment [6], the “Ratio IC50” value came to 4.4.

With `O=C(/C=C/c1cc(O)ccc1O)OCCCc1ccccc1`, in experiment [3], the inhibition entry is “Active”.

As to `O=C(/C=C/c1cccc(O)c1O)OCCCc1ccccc1`, the inhibition entry in experiment [3] was “Active”.

Take `O=C(/C=C/c1ccc(O)cc1O)OCCCc1ccccc1`: the inhibition result in experiment [3] is “inactive”.

These data come from ChEMBL document CHEMBL4414547, “Discovery of a novel 2,5-dihydroxycinnamic acid-based 5-lipoxygenase inhibitor that induces apoptosis and may impair autophagic flux in RCC4 renal cancer cells” (Eur J Med Chem, 2019).
